This passage reports MMAD results from patent publication US7334580B2, “Methods, devices and formulations for targeted endobronchial therapy” (priority 2003, dated 2008).

The series is described as follows: Antibiotic aerosol delivery with nebulizer at distal Y position, three nebulizers. Set-up: unit not given here. The following applies: T-BIRD, continuous. From the text:
The inhaled mass filter 1040 allows one to do accurate measurements of what delivery amounts are actually reaching the patient 10.
In a second experiment, the arrangements of FIGS. 15A and 15B were used with a single commercially available ventilator (the T-Bird ventilator) together with three different commercially available nebulizers. The nebulizer actuation was examined in the “continuous” mode. The humidity feature for these ventilators was examined by performing the test both when the feature is active and when it is off. An expiratory line filter was also used (not shown). Clearly, the Portex nebulizer performed poorly under these conditions.

The mark [1] stands for this setting: AEROGEN nebulizer, humidity OFF.
Setting [2] is: AEROTECH nebulizer, humidity OFF.
[3] abbreviates: AEROTECH nebulizer, humidity ON.

As for gentamicin, the MMAD under setting [1] came to 1.1; the MMAD (AEROGEN nebulizer, humidity ON) worked out at 1.2; the MMAD under setting [2] is 0.9; the MMAD under setting [3] is given as 1.3; the MMAD (PORTEX nebulizer, humidity ON) is on record as 0.9.

Turning to `CN[C@H](CC(C)C)C(=O)N[C@H]1C(=O)N[C@@H](CC(N)=O)C(=O)N[C@H]2C(=O)N[C@H]3C(=O)N[C@H](C(=O)N[C@H](C(=O)O)c4cc(O)cc(O)c4-c4cc3ccc4O)[C@H](O)c3ccc(c(Cl)c3)Oc3cc2cc(c3O[C@@H]2O[C@H](CO)[C@@H](O)[C@H](O)[C@H]2O[C@H]2C[C@](C)(N)[C@H](O)[C@H](C)O2)Oc2ccc(cc2Cl)[C@H]1O` [VANCOMYCIN, vancomycin], the MMAD by setting is: under setting [1], 2; (AEROGEN nebulizer, humidity ON) 2; under setting [2], 1.7; under setting [3], 1.1; (PORTEX nebulizer, humidity ON) 1.1.
